The source of these data is paper PMC10135567, “New Indole-3-Propionic Acid and 5-Methoxy-Indole Carboxylic Acid Derived Hydrazone Hybrids as Multifunctional Neuroprotectors” (Antioxidants, 2023).

A short description of series [1]: Stability by UV-vis measurements at different pH. The format is physicochemical. The settings on record: 50 µM, pH 2, 4.5, 7.4 and 8.4, after 1, 2, 3 and 24 h. The procedure: The stability of the compounds was also considered a potential issue. Therefore, selected compounds (3a, 3d, 5d, and 5e at a concentration of 50 µM) were studied by UV-vis measurements under different pH conditions, including pH 2, 4.5, 7.4, and 8.4, to represent different physiological (gastric, intestinal, etc.) conditions.

Series [2] can be described thus: Fe(II)-induced lipid peroxidation assay (LP assay, TBARS). It is filed as biochemical. The settings on record: 90 µM, lecithin 1 mg/mL, 0.1 mM FeCl2; lower = stronger antioxidant. How it is done:
The lipid peroxidation assay and a modification of the deoxyribose-degradation assay were used. Two types of measurement compositions in phosphate buffer (PB–K2HPO4/KH2PO4, pH 7.4) were prepared for both tests: (i) samples, containing the biologically relevant molecules (lecithin emulsion or deoxyribose), iron, and the tested hydrazones at the concentrations indicated below the figures; and (ii) controls, in which the tested hydrazones were omitted. The data for the sample activity were presented as a percentage of the control measurement.
The thiobarbituric-acid reactive-substance colorimetric test was performed in a model system of Fe(II)-induced lipid peroxidation as an emulsion prepared from egg yolk phospholipids. Each sample contained 1 mg/mL of lecithin. LP was initiated using 0.1 mM FeCl2. After 30 min incubation at 37 °C, 0.5 mL of 2.8% trichloroacetic acid solution and 0.5 mL of 0.5% thiobarbituric acid solution were added, following a second incubation at 100 °C for 20 min. Centrifugation at 3000 rpm for 20 min at 4 °C was performed, and we determined the absorbance value of the supernatant at 532 nm via Shimadzu UV-1601 UV-VIS spectrophotometer.

The subject of series [3] is zonula occludens-1 (ZO-1), tight junctions between bEnd3 cells. Nature of the series: Immunofluorescence of ZO-1 (tight junctions) in bEnd3 cells. The format is cell-based, mouse. The settings on record: 90 min. How it is done: Immunofluorescence of zonula occludens-1 (ZO-1) was performed to determine the in vitro effect of the compounds on tight junctions (TJs) between bEnd3 cells. The experiment was conducted simultaneously with the permeability assay. Briefly, cells were seeded on cover slides in 24-well plates at a concentration of 3.5 × 10^4 cells/well and incubated for 3–4 d at 37 °C and 5% CO2 in a humidified atmosphere, until they reached 100% confluence. The cells were then treated with 10 and 50 µM concentrations of the compounds for 90 min. After the allotted treatment time, the cells were fixed with ice-cold acetone at −20 °C for 10 min; blocked with 1% bovine serum albumin (BSA, cat. no. 9048-46-8, Acros Organics, Thermo Fischer Scientific, Waltham, MA, USA) in PBS, containing 0.1% Tween® 20 (cat. no. P1379, Sigma-Aldrich Co. LLC, St. Louis, MO, USA); and labeled with anti-ZO-1 (rabbit polyclonal antibody, 1:500, cat. no. ab96587, Abcam, Cambridge, UK) at 4 °C overnight. The slides were then incubated with a secondary donkey anti-rabbit Alexa Fluor™ 555 antibody (1:1000, cat. no. 4413S, Molecular Probes, Thermo Fischer Scientific, Waltham, MA, USA) for 1 h at room temperature (RT) in the dark. […] Fluorescence microscopy was performed on a spinning disk confocal microscope system (Andor Dragonfly 505, Oxford Instruments, Abingdon, UK) with 60 × oil NA 1.4 objective, with em./ex. = 561/617 nm for ZO-1 and 405/445 nm for DAPI. The obtained data were analyzed with Fiji and compiled via the FigureJ plugin [46].
To further explore the neuroprotective effect of the compounds, we tested their ability to influence the BBB and its permeability, utilizing a static BBB model with brain microvascular endothelial cell line bEnd3 [36], as it would be essential for the compounds to pass the BBB and protect the neuronal cells. […] Here, we determined any changes in the permeability of the BBB by imitating an endothelial barrier via a static BBB model of bEnd3 cells (Figure 11a,c,e). […]

For series [4], the system named is isolated rat-brain synaptosomes. Kind of series: Level of reduced glutathione (GSH) in isolated synaptosomes, substances administered alone. As to conditions: 100 µM. How it is done: Preparation of the synaptosomes was carried out by multiple centrifugations using the Percoll gradient. Homogenization of the brains was performed in 10 volumes of cold buffer 1, which contained 5 mM HEPES and 0.32 M sucrose (pH = 7.4), followed by centrifugation at different speeds. For preparation of the gradient, the synaptosomes were isolated by Percoll reagent. Synaptosomes were resuspended and incubated in buffer 2, which contained 290 mM NaCl, 0.95 mM MgCl2x6H2O, 10 mM KCl, 2.4 mM CaCl2xH2O, 2.1 mM NaH2PO4, 44 mM HEPES, and 13 mM D-glucose. Incubations were performed in a 5% CO2 + 95% O2 atmosphere. The method of Lowry et al., using bovine serum albumin as a standard content, was applied for determination of synaptosomal protein [51].
After the treatment with the tested compounds, the glutathione levels of the synaptosomes were determined with an Ellman reagent (DTNB). The GSH levels were evaluated based on the synaptosomal sediment, precipitated with 5% TCA, and centrifuged for 10 min at 4000× g. GSH levels in the supernatant were measured spectrophotometrically at 412 nm by a Spectro UV-vis split spectrophotometer (LaboMed. Inc., Los Angelis, California, USA). […]

“Also recorded” adds a separate entry of the source.

Turning to `COc1cc(C=NNC(=O)CCc2c[nH]c3ccccc23)ccc1O` [Compound 3d, N′-(4-Hydroxy-3-methoxybenzylidene)-3-(1H-indol-3-yl)propanehydrazide], the “stability (UV-vis spectra over time)” value in series [1] was “stable over time”. Take `COc1ccc2[nH]c(C(=O)NN=Cc3cc(OC)c(O)c(OC)c3)cc2c1` [Compound 5f, N′-(4-Hydroxy-3,5-dimethoxybenzylidene)-5-methoxy-1H-indole-2-carbohydrazide]: in series [2], the “absorbance ratio sample/control (lipid peroxidation)” value (“absorbance ratio sample/control” below) is on record as “about 45%”. `COc1ccc2[nH]c(C(=O)NN=Cc3ccc(O)c(O)c3)cc2c1` [Compound 5b, N′-(3,4-Dihydroxybenzylidene)-5-methoxy-1H-indole-2-carbohydrazide]: in series [3] (10 µM), the “effect on tight junctions (ZO-1 distribution)” value (shortened to “effect on tight junctions”) is “without affecting the TJs”. Take `COc1ccc2[nH]c(C(=O)NN=Cc3ccc(O)cc3O)cc2c1` [Compound 5c, N′-(2,4-Dihydroxybenzylidene)-5-methoxy-1H-indole-2-carbohydrazide]: the “absorbance ratio sample/control” value in series [2] is reported as “about 45%”. Consider `COc1ccc2[nH]c(C(=O)NN=Cc3cccc(O)c3O)cc2c1` [Compound 5a, N′-(2,3-Dihydroxybenzylidene)-5-methoxy-1H-indole-2-carbohydrazide], for which the “effect on tight junctions” value in series [3] (10 µM) is given as “without affecting the TJs”. As to `COc1ccc2[nH]cc(CCNC(C)=O)c2c1` [Melatonin], the “reduction of GSH level vs. non-treated synaptosomes” value in series [4] is reported as “did not decrease”. As to `COc1ccc(C=NNC(=O)c2cc3cc(OC)ccc3[nH]2)c(O)c1` [Compound 5e, N′-(2-Hydroxy-4-methoxybenzylidene)-5-methoxy-1H-indole-2-carbohydrazide], in series [2], the “absorbance ratio sample/control” value is on record as “about 45%”. In series [3] (10 and 50 µM), the “effect on tight junctions” value is “appears to disrupt TJs”. In addition, the “stability (UV-vis spectra over time)” value in series [1] was “stable over time; also recorded: very good stability”. Consider `COc1cc(C=NNC(=O)CCc2c[nH]c3ccccc23)cc(OC)c1O` [Compound 3f, N′-(4-Hydroxy-3,5-dimethoxybenzylidene)-3-(1H-indol-3-yl)propanehydrazide], for which the “reduction of GSH level vs. non-treated synaptosomes” value in series [4] was found to be 40%. For the same compound, the “absorbance ratio sample/control” value in series [2] is on record as “below 65%”.
